Columns and labels:
[1] = Highest frequency of moderate liver toxicity observed during clinical trials, expressed as a percentage. [column '% BIOL' in source]; details: human
[2] = Highest frequency of acute liver toxicity observed during clinical trials, expressed as a percentage. [column '% AIGUE' in source]; details: human
[3] = human, serum
[4] = human, serum; remark: listed apart in the source
[5] = human
[6] = human; remark: listed apart in the source
[7] = human; remark: listed apart in the source
[8] = human, serum, 4383 h
[9] = human; remark: listed apart in the source
[10] = human; remark: listed apart in the source
[11] = human; remark: listed apart in the source
[12] = human; remark: listed apart in the source
[13] = human; remark: listed apart in the source
[14] = human; remark: listed apart in the source
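For Hepatotoxicity (association with vascular disease) in this document: count of indexed literature references reporting vascular liver injury in humans, e.g. peliosis hepatitis, hepatic veno-occlusive disease or Budd-Chiari syndrome.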
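For Hepatotoxicity (benign tumour) in this document: value is a count of indexed literature references citing a benign tumour confirmed by histopathology.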
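For Hepatotoxicity (choleostasis) in this document: human cholestatic liver injury, shown by histopathology or by peak ALT or AST elevation over alkaline phosphatase ratio below 2, value counts indexed literature reports.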
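For Hepatotoxicity (chronic liver disease) in this document: chronic liver injury confirmed by histopathology or persistently raised serum aminotransferase activity beyond 6 months, value given as the count of indexed literature references.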
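For Hepatotoxicity (cirrhosis) in this document: value is a count of indexed literature references reporting cirrhosis confirmed by histopathology.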
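For Hepatotoxicity (cytolytic) in this document: human cytolytic liver injury, shown by histopathology or by a ratio above 5 of peak ALT or AST elevation to alkaline phosphatase elevation, value counts indexed references.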
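For Hepatotoxicity (granulomatous hepatitis) in this document: value is a count of indexed literature references reporting granulomatous liver disease confirmed by histopathology.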
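For Hepatotoxicity (malignant tumour) in this document: malignant tumour confirmed by histopathology, value gives the count of indexed literature references reporting it.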
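For Hepatotoxicity (severe hepatitis) in this document: human clinical data: severe hepatitis, meaning potentially life-threatening liver failure or clinically observed cases, the value counts how many indexed literature references report it.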
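For Hepatotoxicity (steatosis) in this document: steatosis confirmed by histopathology, value is the count of indexed references.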

| SMILES | Hepatotoxicity (moderate) [1] [%] | Hepatotoxicity (acute) [2] [%] | Hepatotoxicity (moderate) [3] | Hepatotoxicity (acute) [4] | Hepatotoxicity (cytolytic) [5] | Hepatotoxicity (choleostasis) [6] | Hepatotoxicity (severe hepatitis) [7] | Hepatotoxicity (chronic liver disease) [8] | Hepatotoxicity (cirrhosis) [9] | Hepatotoxicity (granulomatous hepatitis) [10] | Hepatotoxicity (association with vascular disease) [11] | Hepatotoxicity (steatosis) [12] | Hepatotoxicity (malignant tumour) [13] | Hepatotoxicity (benign tumour) [14] |
| --- | --- | --- | --- | --- | --- | --- | --- | --- | --- | --- | --- | --- | --- | --- |
| O=C(O)[C@@H](S)[C@@H](S)C(=O)O | 56.7 | 0 | 3 | 0 | 0 | 0 | 0 | 0 | 0 | 0 | 0 | 0 | 0 | 0 |
| O=C(Nc1cccc2c(=O)cc(-c3nnn[nH]3)oc12)c1ccc(OCCCCc2ccccc2)cc1 | 2.1 | 0 | 1 | 0 | 0 | 0 | 0 | 0 | 0 | 0 | 0 | 0 | 0 | 0 |
| CC(CCC(=O)O)C1CC[C@H]2[C@@H]3CC[C@@H]4C[C@H](O)CC[C@]4(C)[C@H]3CC[C@]12C (stereo partly specified) | 11.1 | 0 | 1 | 0 | 0 | 0 | 0 | 0 | 0 | 0 | 0 | 0 | 0 | 0 |
| CO/N=C(\C(=O)N[C@@H]1C(=O)N2C(C(=O)OCOC(=O)C(C)(C)C)=C(Cn3nnc(C)n3)CS[C@H]12)c1csc(N)n1 | 3.3 | 0 | 9 | 0 | 0 | 0 | 0 | 0 | 0 | 0 | 0 | 0 | 0 | 0 |
| CN1CC[C@@H]2Nc3ccccc3[C@@H]2C1.Cl.Cl | 0 | 0 | 0 | 1 | 0 | 1 | 0 | 0 | 0 | 0 | 0 | 0 | 0 | 0 |
| CC(=N)N1CC[C@H](SC2=C(C(=O)O)N3C(=O)[C@H]([C@@H](C)O)[C@H]3C2)C1.O=C(O)CCNC(=O)c1ccccc1 | 38.5 | 0 | 60 | 1 | 0 | 1 | 0 | 0 | 0 | 0 | 0 | 0 | 0 | 0 |
| COc1ccc(/C=C/C(=O)Nc2ccccc2C(=O)O)cc1OC | 7.5 | 0 | 6 | 1 | 0 | 0 | 0 | 0 | 0 | 0 | 0 | 0 | 0 | 0 |
| CCN1CCN(C(=O)N[C@@H](C(=O)N[C@@H]2C(=O)N3[C@@H]2SC(C)(C)[C@@H]3C(=O)O)c2ccccc2)C(=O)C1=O.C[C@]1(Cn2ccnn2)[C@H](C(=O)O)N2C(=O)C[C@H]2S1(=O)=O | 33.3 | 0 | 46 | 0 | 0 | 0 | 0 | 0 | 0 | 0 | 0 | 0 | 0 | 0 |
| [Se] | 0 | 0 | 0 | 0 | 0 | 0 | 0 | 0 | 0 | 0 | 0 | 1 | 0 | 0 |

Source: ChEMBL document CHEMBL3137667, “[Drug-induced liver injury; fourteenth updated edition of the bibliographic database of liver injuries and related drugs]” (Gastroenterol Clin Biol, 2004)
